Data reported in patent EP0247971A2, “Novel pharmaceutical compositions comprising and use of cis-6-(4-acetanilido)-8,9-dimethoxy-2-methyl-1,2,3,4,4a,10b-hexahydrobenzo[c][1,6]naphthyridin” (SANDOZ AG, priority 1986, dated 1987).

Tests used:
Format in all cases: in vivo
[1] = system: asthmatic subjects; assay: Clinical trial C: prophylactic/bronchodilator efficacy in asthma; conditions: additional bronchodilator dosaging on attack
Method: Initial dosaging is of the order of from 1 to 100 mg, e.g. from 5 to 50 mg per day, administered once or in divided dosages 2 or 3x daily, for administration by inhalation and of the order of from 25 to 300 mg per day administered once or in divided dosages 2 or 3x daily, for oral administration, with subsequent reduction in appropriate cases to a maintainance dosage of 1 to 50 mg, e.g. from 5 to 25 mg, per day for inhalation or from 25 to 100 or 200 mg per day orally. Administration is suitably effected in divided dosages 2 or 3x daily. During the course of the trial subjects are monitored continually and all relevant parameters recorded including lung function, alterations in the incidence of activated eosinophils or the release of eosinophil products into the blood or bronchial fluids and/or changes in the function of platelets ex vivo and, in particular,-frequency and severity of asthma exacerbation or attack. Additional bronchodilator dosaging may be provided on the occasion of any such attack.

[2] = system: Guinea pigs; assay: Suppression of airways hyperreactivity, sensitised animals (immune complexes); conditions: immune-complex treated animals, labelled platelets
Description: Guinea pigs are anaesthetised and airways resistance and compliance recorded as described under example lb^l above. […] Platelets are isolated and labelled with ^lllindium prior to intravenous infusion. Platelet accumulation is monitored by external crystal detectors [c.f. Morley et al. […] Allergic reaction is initiated by i.v. injection of preformed immune complexes (bovine y-globulin/ anti-bovine y-globulin), using a dose that is scarcely sufficient to induce bronchospasm at the first injection. By repeating the dose at regular (10 min.) intervals, bronchospasm of progressively increasing amplitude is evidenced. This effect is paralleled by an incremental retention of platelets within the airway vasculature. Following the last dose of immune complexes, the dose-effect relationship to histamine is re-defined. In animals so treated, induction of airways hyperreactivity is consistently observed.

[3] = system: patients exhibiting bronchial asthma; assay: Clinical trial A: bronchodilator efficacy compared with placebo and/or Theophylline and with Salbutamol
Description: Criteria for inclusion are based on medical history and on initial examination. Subjects selected are of either sex, aged between 18 and 60 years, and identified as having a history of bronchial asthma and positive response to inhalation of β2-agonist therapy (e.g. Fenoterol or Salbutamol) or other bronchodilator therapy, e.g. with FEV-1 and/or PEFR increasing by 20% as documented 1 week before commencement of the trial. Baseline of FEV-1 and/or PEFR in each subject entered for the trial should be at least 20% below the predicted value, preferably also at the time of trial. The following exclusion criteria are applied: • - Severe chronic obstructive pulmonary disease, emphysema, active and progressive infection, status asthmaticus during the last 12 months. • - Any serious or chronic illness of the gastrointestinal system, liver or kidneys which may influence absorption, metabolism and excretion of the drugs. • - Diabetes mellitus. • - Any condition which might impair the ability of the physician to evaluate the progress of the patient.
Medication employed for the trial comprises: • A. (±)-COMPOUND (in the form of its bis-hydrogen maleate salt), in dry substance form. For administration the active ingre- ded is dissolved in pharmaceutical grade water, 30 - 60 mins. before ingestion: at a concentration of 1 g/100 ml, for administration at a dosage of 300 mg (30 ml), 200 mg (20 ml) or 100 mg (10 ml); at a concentration of 0.5 g/ 100 ml, for administration at a dosage of 50 mg (10 ml); or at a concentration of 0.25 g/100 ml for administration at a dosage of 25 mg (10 ml). • B. Theophylline solution at a dosage of 150 mg. • C. Placebo - aqueous solution only, no active ingredient. • D. Salbutamol, administered by inhalation in 3 puffs comprising 0.1 mg active ingredient/puff.
The trial is performed for each subject on 2, 3 or more separate days, each trial day being separated by a wash-out period of 3 to 7 days. […]

[4] = system: subjects exhibiting allergic, atopic bronchoconstrictor response; assay: Clinical trial B: prophylactic efficacy compared with placebo (allergen challenge); conditions: vs placebo
Method: Suitable individual dosages, e.g. for (i)-COMPOUND as the bis-hydrogen maleate, in such clinical trials comprise e.g. ca. 1 to 25 mg administered by inhalation (for single administration or administration 2 to 3 daily) or ca. 25 to 100 mg orally (for single administration or administration 2 to 3x daily) up to ca. 200 or 300 mg orally (for single administration).
Both acute (0 to 1 hour) and long-term (up to 12 hour) change in lung function is determined post-medication by measurement of parameters (FVC, FEV 1 etc...) as set forth for clinical trial A above.
In addition to monitoring of lung function, blood eosinophil levels are also monitored and the incidence of activated eosinophils and eosinophil secretory proteins is determined. In individual studies, subjects are also subjected to lung lavage and the presence of eosinophils and platelets and their respective secretory products determined before and after exposure to allergen.

| SMILES | results employing COMPOUND at exacerbation or attack [1] | platelet accumulation [2] | tolerance (reported side-effects and side-reactions) ([3]; all instances) | results compared with therapy B (Theophylline 150 mg) or D (Salbutamol inhalation) ([3]; higher dosage rates, e.g. of 50 mg or 100 mg and more) | lung-function ([3]; oral 25 to 300 mg, compared with placebo) | bronchorestrictor response to allergen ([4]; ca. 1 to 25 mg by inhalation or ca. 25 to 300 mg orally prior to allergen challenge) | eosinophilic response ([4]; dosages as indicated prior to allergen challenge) |
| --- | --- | --- | --- | --- | --- | --- | --- |
| COc1cc2c(cc1OC)[C@@H]1CN(C)CC[C@@H]1N=C2c1ccc(NC(C)=O)cc1 [COMPOUND, cis-6-(4-acetanilido)-8,9-dimethoxy-2-methyl-1,2,3,4,4a,10b-hexahydrobenzo[c][1,6]naphthyridin] | symptomatic efficacy | No inhibition |  |  |  |  |  |
| COc1cc2c(cc1OC)[C@@H]1CN(C)CC[C@@H]1N=C2c1ccc(NC(C)=O)cc1 (racemic) [cis-6-(4-acetanilido)-8,9-dimethoxy-2-methyl-1,2,3,4,4a,10b-hexahydrobenzo[c][1,6]naphthyridin] |  |  | well tolerated | approach or are at least comparable | marked improvement | advance protection | reduction |
